Assays:
[1] = tested on: human umbilical vein endothelial cells (HUVEC), basal; assay: In vitro HUVEC proliferation assay (b), basal; format: cell-based; settings: test (b)
[2] = tested on: VEGF-stimulated human umbilical vein endothelial cells (HUVEC); assay: In vitro HUVEC proliferation assay (b), VEGF-stimulated; format: cell-based; settings: 96 h, test (b), VEGF 3 ng/ml, 4 days, tritiated-thymidine incorporation
Description: (§1) (b) In Vitro HUVEC Proliferation Assay
(§2) HUVEC cells were isolated in MCDB 131 (Gibco BRL)+7.5% v/v foetal calf serum (FCS) and were plated out (at passage 2 to 8), in MCDB 131+2% v/v FCS+3 μg/ml heparin+1 μg/ml hydrocortisone, at a concentration of 1000 cells/well in 96 well plates. After a minimum of 4 hours they were dosed with the appropriate growth factor (i.e. VEGF 3 ng/ml, EGF 3 ng/ml or b-FGF 0.3 ng/ml) and compound. The cultures were then incubated for 4 days at 37° C. with 7.5% carbon dioxide. On day 4 the cultures were pulsed with 1 μCi/well of tritiated-thymidine (Amersham product TRA 61) and incubated for 4 hours. The cells were harvested using a 96-well plate harvester (Tomtek) and then assayed for incorporation of tritium with a Beta plate counter. Incorporation of radioactivity into cells, expressed as cpm, was used to measure inhibition of growth factor-stimulated cell proliferation by compounds.

[3] = tested on: EGF-stimulated human umbilical vein endothelial cells (HUVEC); assay: In vitro HUVEC proliferation assay (b), EGF-stimulated; format: cell-based; settings: 96 h, test (b), EGF 3 ng/ml, 4 days, tritiated-thymidine incorporation
Description: as §1, §2

[4] = tested on: femoral epiphyseal growth plates of the distal femur and proximal tibia; assay: 14 day toxicity test in rat (d); format: in vivo, Alderley Park rats (Wistar derived); settings: 100 mg/kg/day, oral gavage, 14 days, female rats; p<0.001 (one-tailed Students' t-test)
Text: The toxicological profile of compounds of the present invention may be assessed, for example using a rat 14 day study as described hereinafter.
(d) 14 Day Toxicity Test in Rat
This test measures the activity of compounds in increasing the zone of hypertrophy in the femoral epiphyseal growth plates of the distal femur and proximal tibia, and allows assessment of histopathological changes in other tissues.
A. Preclinical Safety Evaluation of rhuMAbVEGF, an antiangiogenic humanised monoclonal antibody, Tox. Path., 27: 78-86, 1999).
Compounds were initially formulated by suspension in a 1% (v/v) solution of polyoxyethylene (20) sorbitan mono-oleate in deionised water, by ball-milling at 4° C. overnight (at least 15 hours). Compounds were re-suspended by agitation immediately prior to dosing. […] The femoral epiphyseal growth plate areas of the distal femur and proximal tibia were measured in sections of femur and tibia using morphometric image analysis. The increase in the zone of hypertrophy was determined by comparison of the mean epiphyseal growth plate area of the control group versus the treatment group, and statistical significance determined using a one-tailed Students' t-test. […]

[5] = tested on: CaLu-6 tumour xenografts; assay: In vivo solid tumour disease model (c); design: species or system female athymic Swiss nu/nu mice; settings: 50 mg/kg, orally once daily, CaLu-6 xenografts in mice; p<0.001 (Mann-Whitney Rank Sum Test)
Description: (c) In Vivo Solid Tumour Disease Model
This test measures the capacity of compounds to inhibit solid tumour growth.
CaLu-6 tumour xenografts were established in the flank of female athymic Swiss nu/nu mice, by subcutaneous injection of 1×10^6 CaLu-6 cells/mouse in 100 μl of a 50% (v/v) solution of Matrigel in serum free culture medium. […] Tumours were measured using vernier calipers and volumes were calculated as: (l×w)×√(1×w)×(π/6), where 1 is the longest diameter and w the diameter perpendicular to the longest diameter. Test compounds were administered orally once daily for a minimum of 21 days, and control animals received compound diluent. Tumours were measured twice weekly. The level of growth inhibition was calculated by comparison of the mean tumour volume of the control group versus the treatment group, and statistical significance determined using a Students' t-test and/or a Mann-Whitney Rank Sum Test. The inhibitory effect of compound treatment was considered significant when p<0.05.

With COc1cc2c(Nc3ccc(Br)cc3F)ncnc2cc1OCC1CCN(C)CC1 [Example 2, 4-(4-bromo-2-fluoroanilino)-6-methoxy-7-(1-methylpiperidin-4-ylmethoxy)quinazoline] the IC50 [1] was > 3000 nM, the IC50 [2] was 60 nM and the IC50 [3] was 170 nM. For the same compound, the “increase in epiphyseal growth plate hypertrophy” value [4] was 75% and the “inhibition of tumour growth” value [5] was 78%.

Source: patent US8642608B2, “Quinazoline derivatives as VEGF inhibitors” (AstraZeneca AB, priority 1999, dated 2014)
